Reference: patent US10029986B2, “Alkynyl pyridine-substituted amide compound and pesticide” (NISSAN CHEMICAL INDUSTRIES, LTD., priority 2014, dated 2018)

The compounds below were run on Southern root-knot nematode (Meloidogyne incognita) (assay: Test on the preventive effect against Southern root-knot nematode (garden balsam seedlings)). Conditions: 504 h, test solution B 100 ppm, 1 ml per seedling to base of garden balsam seedlings, 3 weeks in greenhouse, read-out: efficacy (root knot damage degree relative to non-treated plot).
Type: in vivo
Experimental: Compounds of the present invention were dissolved in dimethyl sulfoxide to prepare 1 wt % solutions. Then, distilled water was added to dilute the solutions to the prescribed concentration (100 ppm), and the obtained solutions were used in the following the Test Examples 9 to 12. 1 ml per seedling of test solution B of the compounds of the present invention was treated to the bases of garden balsam seedlings (about 2 weeks after budding) planted in a cell tray of which each cell was filled with 10 g of soil. 1 hour after the application, 1 ml per cell of water containing Southern root-knot nematode (Meloidogyne incognita) 2 L larvae (100 larvae of 2 L/1 ml) was applied to the base. The tray was placed in a greenhouse for 3 weeks, and the degree of root knot on the root was determined in accordance with the following damage index and the damage degree to calculate the efficacy (%) relative to the non-treated plot in accordance with the following formula. • 0: No knot formation was observed. • 1: Knot formations were observed on parts of the root system. • 2: Knot formations were observed on the entire root system. • 3: Large knot formations were observed. • 4: Large knot formations were observed on the entire root system. [Damage degree]=[Σ(damage index×number of each damaged indexed seedling)/(4×number of seedlings investigated)]×100 Efficacy (%)=[1−(damage degree in treated plot/damage degree in non-treated plot)]×100
For `O=C(NCC(c1ncc(C#CC2CC2)cc1Cl)C1CC1)c1cccnc1C(F)F` (stereo not shown) [3-008], the pest or weed control at 100 µg/mL was no less than 50%.
Work on `O=C(NCCc1ncc(C#CC2CC2)cc1Cl)c1cccnc1C(F)F` [3-001, N-[2-[3-chloro-5-(cyclopropylethynyl)pyridin-2-yl]ethyl]-2-(difluoromethyl)nicotinamide] yielded a pest or weed control at 100 µg/mL of no less than 50%.
`Cn1cc(C(=O)NCCc2ncc(C#CC3CC3)cc2Cl)c(C(F)F)n1` [8-001] was tested, and the pest or weed control at 100 µg/mL was no less than 50%.
With `CC(CNC(=O)c1cn(C)nc1C(F)F)c1ncc(C#CC2CC2)cc1Cl` (stereo not shown) [8-007] the pest or weed control at 100 µg/mL was no less than 50%.
With `CC(CNC(=O)c1cccnc1C(F)F)c1ncc(C#CC2CC2)cc1Cl` (stereo not shown) [3-006] the pest or weed control at 100 µg/mL was no less than 50%.
`COC(c1ncc(C#CC2CC2)cc1Cl)C(C)NC(=O)c1ccccc1C(F)(F)F` (stereo not shown) [1-024] gave a pest or weed control at 100 µg/mL of no less than 50%.
`COC(CNC(=O)c1cn(C)nc1C(F)F)c1ncc(C#CC2CC2)cc1Cl` (stereo not shown) [8-019] gave a pest or weed control at 100 µg/mL of no less than 50%.
For `O=C(NCC(F)(F)c1ncc(C#CC2CC2)cc1Cl)c1cccnc1C(F)F` [3-003, N-[2-[3-chloro-5-(cyclopropylethynyl)pyridin-2-yl]-2,2-difluoroethyl]-2-(difluoromethyl)nicotinamide], the pest or weed control at 100 µg/mL was no less than 50%.
In the case of `CSC(CNC(=O)c1cccnc1C(F)F)c1ncc(C#CC2CC2)cc1Cl` (stereo not shown) [3-020], the pest or weed control at 100 µg/mL was no less than 50%.
In the case of `COC(c1ncc(C#CC2CC2)cc1Cl)C(C)NC(=O)c1cn(C)nc1C(F)F` (stereo not shown) [8-028, N-[2-[3-chloro-5-(cyclopropylethynyl)pyridin-2-yl]-2-methoxy-1-methylethyl]-3-difluoromethyl-1-methyl-1H-pyrazole-4-carboxamide], the pest or weed control at 100 µg/mL was no less than 50%.
Compound `Cn1cc(C(=O)NCCc2ncc(C#CC(C)(C)C)cc2Cl)c(C(F)F)n1` [8-002] has a pest or weed control at 100 µg/mL of no less than 50%.
For `COC(c1ncc(C#CC2CC2)cc1Cl)C(C)NC(=O)c1sc(C)nc1C(F)F` (stereo not shown) [9-006a], the pest or weed control at 100 µg/mL was no less than 50%.
`COC(c1ncc(C#CC(C)(C)C)cc1Cl)C(C)NC(=O)c1ccccc1C(F)(F)F` (stereo not shown) [1-025] showed a pest or weed control at 100 µg/mL of no less than 50%.
In the case of `O=C(NCC(F)(F)c1ncc(C#CC2CC2)cc1Cl)c1ccccc1C(F)(F)F` [1-005], the pest or weed control at 100 µg/mL was no less than 50%.
`CC(C)(C)C#Cc1cnc(CCNC(=O)c2cccnc2C(F)F)c(Cl)c1` [3-002] showed a pest or weed control at 100 µg/mL of no less than 50%.
With `COC(c1ncc(C#CC2CC2)cc1Cl)C(C)NC(=O)c1cccnc1C(F)F` (stereo not shown) [3-021] the pest or weed control at 100 µg/mL was no less than 50%.
`Cn1cc(C(=O)NCC(c2ncc(C#CC3CC3)cc2Cl)C2CC2)c(C(F)F)n1` (stereo not shown) [8-009] showed a pest or weed control at 100 µg/mL of no less than 50%.
Compound `CC(CNC(=O)c1cccnc1Cl)c1ncc(C#CC2CC2)cc1Cl` (stereo not shown) [3-005] has a pest or weed control at 100 µg/mL of no less than 50%.
`CC(C)(C)C#Cc1cnc(CCNC(=O)c2ccccc2C(F)(F)F)c(Cl)c1` [1-003, N-[2-[3-chloro-5-(3,3-dimethyl-1-butynyl)pyridin-2-yl]ethyl]-2-(trifluoromethyl)benzamide] gave a pest or weed control at 100 µg/mL of no less than 50%.
`O=C(NCC(c1ncc(C#CC2CC2)cc1Cl)C1CC1)c1ccccc1C(F)(F)F` (stereo not shown) [1-009] gave a pest or weed control at 100 µg/mL of no less than 50%.
Work on `CC(CNC(=O)c1ccccc1C(F)(F)F)c1ncc(C#CC2CC2)cc1Cl` (stereo not shown) [1-007, N-[2-[3-chloro-5-(cyclopropylethynyl)pyridin-2-yl]propyl]-2-(trifluoromethyl)benzamide] yielded a pest or weed control at 100 µg/mL of no less than 50%.
`C=C(CNC(=O)c1ccccc1C(F)(F)F)c1ncc(C#CC)cc1Cl` [1-012, N-[2-[3-chloro-5-(1-propynyl)pyridin-2-yl]-2-propenyl]-2-(trifluoromethyl)benzamide] was tested, and the pest or weed control at 100 µg/mL was no less than 50%.
